Assay results reported in publication PMC13266999, “Designing Antibiotics with Inherent Resistance to Efflux as a Strategy to Revive Discovery against Multidrug-Resistant Pathogens” (Journal of Medicinal Chemistry, 2026).
In brackets after ≈: the same amount, converted by molar mass. Several values for one entry are separate records, joined by “and”; a condition that tells them apart may be missing. Equal entries are not always repeated. Where two headings read alike, the source gives them in different places.

Experiments:
A. baumannii = A. baumannii efflux chequerboard assay; format: cell-based, Acinetobacter baumannii; conditions: for MIC: Acinetobacter baumannii
Method: Checkerboard assays were performed by preparing two separate 2-fold dilution series of compounds in two 96 well plates, one horizontally, one vertically. […] Plates were incubated at 37 C for 20 h and the absorbance (OD600) was read on a CLARIOstar spectrophotometer (BMG Labtech). The fractional inhibitory concentration was calculated as follows: ΣFIC = [(MIC of A in combination)/(MIC of A alone)] + [(MIC of B in combination)/(MIC of B alone)].

S. aureus = assay: MIC (microbroth dilution); format: cell-based, Staphylococcus aureus; conditions: for MIC: Staphylococcus aureus; for fold difference in MIC, SA-1199B vs SA-1199: NorA-overexpressing vs WT; for fold potentiation compared to levofloxacin: fluoroquinolone-resistant NCTC 13616 and NCTC 13277
Method: (§1) All bacteria were maintained on tryptic soy agar (TSA), except Streptococcus spp., which were maintained on Columbia agar plates containing 5% horse blood. […] Bacteria were grown to stationary phase in liquid culture overnight, with shaking at 200 rpm, before being back diluted to the relevant starting concentration for each assay below. MICs were measured by the microbroth dilution method. […] Absorbance at OD600 was read on a CLARIOstar spectrophotometer (BMG Labtech) and the MIC was defined as the minimum concentration of compound where no visible growth was detected. […] MICs were also performed in the presence of the outer membrane permeator, polymyxin b nonapeptide (PMBN) following the same MIC method but with the following variation. The 2-fold dilution series of compound was prepared as above, then 50 μL of PMBN at a final concentration of 30 μg/mL was added to relevant wells, while 50 μL/well of blank media was added to the remaining wells. Bacteria were then added at 50 μL/well for a starting concentration as above. […] The MICs were read and defined as above. All animal procedures were performed by the contract research organization Pharmacology Discovery Services Taiwan in accordance with the Guide for the Care and Use of Laboratory Animals. The procedures were approved by the Institutional Ethics Committee of Pharmacology Discovery Services Taiwan, Ltd. (approval no. AB127662), in compliance with animal welfare legislation in Taiwan.

E. faecalis = assay: MIC (microbroth dilution); format: cell-based, Enterococcus faecalis; conditions: Enterococcus faecalis, read-out: MIC
Method: as §1

[1] = system: NorA overexpressing strain NCTC 13616; assay: Reserpine growth (efflux inhibition) assay; conditions: for AUC of growth curve: biological replicates 1-3
Method: Statistical analyses were performed with GraphPad Prism V9.5.0. […] Unpaired t tests were used when comparing two samples in the gyrase assays.

[2] = ATCC17978, A. baumannii ATCC 17978, read-out: MIC alone
[3] = A. baumannii AYE, read-out: MIC alone
[4] = ATCC9144, ATCC 9144, read-out: MIC
[5] = NCTC13277, NCTC 13277, read-out: MIC
[6] = NCTC13616, NCTC 13616, read-out: MIC

Compound	MIC +50 (0.25x MIC) (A. baumannii; A. baumannii ATCC 17978) [µg/mL]	MIC +50 (0.5x MIC) (A. baumannii; A. baumannii ATCC 17978) [µg/mL]	MIC +50 (0.25x MIC) (A. baumannii; A. baumannii AYE)	MIC (S. aureus; [4]) [µg/mL]	MIC (S. aureus; [5]) [µg/mL]	MIC (S. aureus; [6]) [µg/mL]	MIC (S. aureus; SA-1199, read-out: MIC) [µg/mL]	MIC (S. aureus; SA-1199B (NorA-overexpressing)) [µg/mL]	other results
CC(C)(O/N=C(\C(=O)N[C@@H]1C(=O)N2C(C(=O)[O-])=C(C[n+]3ccccc3)CS[C@H]12)c1csc(N)n1)C(=O)O [Ceftazidime]	0.94 to 3.76	0.003 to 0.438	>1,024 μg/mL	–	–	–	–	–	MIC +50 (0.5x MIC) (A. baumannii; A. baumannii AYE): 3.76 to 224 µg/mL; MIC (A. baumannii; [2]): 4 to 16 µg/mL; MIC (A. baumannii; [3]): > 1020 µg/mL
O=C(N[C@H](CO)[C@H](O)c1ccc([N+](=O)[O-])cc1)C(Cl)Cl [Chloramphenicol]	60	56	120 µg/mL	–	–	–	–	–	MIC +50 (0.5x MIC) (A. baumannii; A. baumannii AYE): 224 µg/mL; MIC (A. baumannii; ATCC17978, read-out: MIC alone): 64 µg/mL; MIC (A. baumannii; read-out: MIC alone): 128 µg/mL
O=C(O)c1cn(C2CC2)c2cc(N3CCN[C@@H](Cc4cccc5ccccc45)C3)c(F)cc2c1=O [Compound 12, (S)-1-Cyclopropyl-6-fluoro-7-(3-(naphthalen-1-ylmethyl)piperazin-1-yl)-4-oxo-1,4-dihydroquinoline-3-carboxylic acid]	–	–	–	4 (≈ 8.48 µM)	8 (≈ 17 µM)	8 (≈ 17 µM)	2 (≈ 4.24 µM)	4 (≈ 8.48 µM)	MIC (S. aureus; USA300, USA300, read-out: MIC): 8 to 16 µg/mL (≈ 17 to 33.9 µM); MIC (E. faecalis; NCTC775, NCTC 775): 8 µg/mL (≈ 17 µM); MIC (E. faecalis; NCTC12201, NCTC 12201): 8 µg/mL (≈ 17 µM); MIC (E. faecalis; NCTC12204, NCTC 12204): 8 µg/mL (≈ 17 µM)
O=C(O)c1cn(C2CC2)c2c(Cc3cccc4ccccc34)c(N3CCNCC3)c(F)cc2c1=O [Compound 19, 1-Cyclopropyl-6-fluoro-8-(naphthalen-1-ylmethyl)-4-oxo-7-(piperazin-1-yl)-1,4-dihydroquinoline-3-carboxylic acid]	–	–	–	64 (≈ 136 µM)	32 (≈ 67.9 µM)	32 (≈ 67.9 µM)	16 (≈ 33.9 µM)	16 (≈ 33.9 µM)	MIC (S. aureus; USA300, USA300, read-out: MIC): 32 µg/mL (≈ 67.9 µM); MIC (E. faecalis; NCTC775, NCTC 775): 16 µg/mL (≈ 33.9 µM); MIC (E. faecalis; NCTC12201, NCTC 12201): 16 µg/mL (≈ 33.9 µM); MIC (E. faecalis; NCTC12204, NCTC 12204): 16 µg/mL (≈ 33.9 µM)
C[C@H]1COc2c(N3CCN(c4ncccn4)CC3)c(F)cc3c(=O)c(C(=O)O)cn1c23 [Compound 42, (S)-9-Fluoro-3-methyl-7-oxo-10-(4-(pyrimidin-2-yl)piperazin-1-yl)-2,3-dihydro-7H-[1,4]oxazino[2,3,4-ij]quinoline-6-carboxylic acid]	–	–	–	0.06 (≈ 0.141 µM)	> 32	8 (≈ 18.8 µM)	0.06 (≈ 0.141 µM)	0.25 (≈ 0.588 µM)	fold difference in MIC, SA-1199B vs SA-1199 (S. aureus): 4 fold; AUC of growth curve ([1]; 0.25 MIC + R (reserpine)): 1.819 and 2.376 and 1.866; AUC of growth curve ([1]; 0.25 MIC): 2.249 and 2.537 and 2.169; AUC of growth curve ([1]; 0.5 MIC + R (reserpine)): 1.376 and 1.633 and 1.162; AUC of growth curve ([1]; 0.5 MIC): 1.682 and 1.538 and 1.705
C[C@H]1COc2c(N3CCC(Nc4ncccn4)C3)c(F)cc3c(=O)c(C(=O)O)cn1c23 (stereo partly drawn) [Compound 43, (3S)-9-Fluoro-3-methyl-7-oxo-10-(3-(pyrimidin-2-ylamino)pyrrolidin-1-yl)-2,3-dihydro-7H-[1,4]oxazino[2,3,4-ij]quinoline-6-carboxylic acid]	–	–	–	0.125 (≈ 0.294 µM)	2 (≈ 4.7 µM)	2 (≈ 4.7 µM)	0.016 (≈ 0.0376 µM)	0.03 (≈ 0.0705 µM)	fold difference in MIC, SA-1199B vs SA-1199 (S. aureus): 2 fold; fold potentiation compared to levofloxacin (S. aureus): 8 fold; AUC of growth curve ([1]; 0.25 MIC + R (reserpine)): 2.601 and 2.681 and 2.535; AUC of growth curve ([1]; 0.25 MIC): 3.079 and 3.208 and 2.944; AUC of growth curve ([1]; 0.5 MIC + R (reserpine)): 0.9550 and 0.7355 and 0.8940; AUC of growth curve ([1]; 0.5 MIC): 1.061 and 0.9440 and 1.050; efflux liability in reserpine assay ([1]; 0.5x MIC with vs without reserpine): did not demonstrate efflux liability
C[C@H]1COc2c(N3CC[C@H](Nc4ncccn4)C3)c(F)cc3c(=O)c(C(=O)O)cn1c23 [Compound 44, (S)-9-Fluoro-3-methyl-7-oxo-10-((S)-3-(pyrimidin-2-ylamino)pyrrolidin-1-yl)-2,3-dihydro-7H-[1,4]oxazino[2,3,4-ij]quinoline-6-carboxylic acid]	–	–	–	0.25 (≈ 0.588 µM)	8 (≈ 18.8 µM)	8 (≈ 18.8 µM)	0.25 (≈ 0.588 µM)	0.25 (≈ 0.588 µM)	fold potentiation compared to levofloxacin (S. aureus): 2–4 fold
C[C@H]1COc2c(N3CC[C@@H](N)C3)c(F)cc3c(=O)c(C(=O)O)cn1c23 [Compound 45, (S)-10-((R)-3-Aminopyrrolidin-1-yl)-9-fluoro-3-methyl-7-oxo-2,3-dihydro-7H-[1,4]oxazino[2,3,4-ij]quinoline-6-carboxylic acid]	–	–	–	0.25 (≈ 0.72 µM)	32 (≈ 92.1 µM)	32 (≈ 92.1 µM)	–	–	fold loss of activity compared to 46 (S. aureus): 32- to 64 fold
C[C@H]1COc2c(N3CC[C@@H](Nc4ncc(F)cn4)C3)c(F)cc3c(=O)c(C(=O)O)cn1c23 [Compound 47, (S)-9-Fluoro-10-((R)-3-((5-fluoropyrimidin-2-yl)amino)pyrrolidin-1-yl)-3-methyl-7-oxo-2,3-dihydro-7H-[1,4]oxazino[2,3,4-ij]quinoline-6-carboxylic acid]	–	–	–	≤ 0.125	1 (≈ 2.26 µM)	0.5 (≈ 1.13 µM)	–	–	–
C[C@H]1COc2c(N3CC[C@@H](Nc4cnccn4)C3)c(F)cc3c(=O)c(C(=O)O)cn1c23 [Compound 48, (S)-9-Fluoro-3-methyl-7-oxo-10-((R)-3-(pyrazin-2-ylamino)pyrrolidin-1-yl)-2,3-dihydro-7H-[1,4]oxazino[2,3,4-ij]quinoline-6-carboxylic acid]	–	–	–	≤ 0.125	1 (≈ 2.35 µM)	1 (≈ 2.35 µM)	0.03 (≈ 0.0705 µM)	0.125 (≈ 0.294 µM)	–
Cc1cc(N[C@@H]2CCN(c3c(F)cc4c(=O)c(C(=O)O)cn5c4c3OC[C@@H]5C)C2)ncn1 [Compound 49, (S)-9-Fluoro-3-methyl-10-((R)-3-((6-methylpyrimidin-4-yl)amino)pyrrolidin-1-yl)-7-oxo-2,3-dihydro-7H-[1,4]oxazino[2,3,4-ij]quinoline-6-carboxylic acid]	–	–	–	0.016 (≈ 0.0364 µM)	0.5 (≈ 1.14 µM)	0.25 (≈ 0.569 µM)	0.016 (≈ 0.0364 µM)	0.016 (≈ 0.0364 µM)	–
CNC(C)C1CCC(N)C(OC2C(N)CC(N)C(OC3OCC(C)(O)C(NC)C3O)C2O)O1 (stereo not drawn) [Gentamicin]	2.13 to 4.25	0.03 to 1.75	>1,024 μg/mL	–	–	–	–	–	MIC (A. baumannii; [2]): 4 µg/mL; MIC (A. baumannii; [3]): > 1020 µg/mL
c1ccc2c(CN3CCNCC3)cccc2c1 [NMP, 1-(naphthalen-1-ylmethyl)piperazine, reference compound]	–	–	–	–	–	–	–	–	fold improvement over ciprofloxacin alone (S. aureus; fluoroquinolone-resistant S. aureus strains): 2 fold
NC[C@H]1O[C@H](O[C@H]2[C@H](O)[C@@H](O[C@H]3O[C@H](CO)[C@@H](O)[C@H](N)[C@H]3O)[C@H](N)C[C@@H]2N)[C@H](N)C[C@@H]1O [Tobramycin]	1.88 to 3.76	0.014 to 0.55	56 to 248 µg/mL	–	–	–	–	–	MIC +50 (0.5x MIC) (A. baumannii; A. baumannii AYE): 0.375 to 136 µg/mL; MIC (A. baumannii; [2]): 4 µg/mL; MIC (A. baumannii; [3]): 256 µg/mL
Colistin	0.015 to 0.123	0.0017 to 0.015	0.015 µg/mL	–	–	–	–	–	MIC alone (A. baumannii; A. baumannii ATCC 17978): 0.25 µg/mL; MIC +50 (0.5x MIC) (A. baumannii; A. baumannii AYE): 0.003 to 0.007 µg/mL; MIC alone (A. baumannii; A. baumannii AYE): 0.25 to 0.5 µg/mL
